Experimental data reported in ChEMBL document CHEMBL1122930, “Synthesis and pharmacological characterization of 5-(2-dodecylphenyl)-4,6-dithianonanedioic acid and 5-[2-(8-phenyloctyl)phenyl]-4,6-dithianonanedioic acid: prototypes of a novel class of leukotriene antagonists” (J Med Chem, 1985).
Structures can show the parent of a compound that is named as a salt.

Assays:
[1] = target: T1, Cysteinyl leukotriene receptor 1 (Cavia porcellus, UniProt Q2NNR5); assay: Binding constant was determined as affinity to displace [3H]LTD4 from Cysteinyl leukotriene D4 receptor on guinea pig lung membrane; type: tissue-based
T1 sequence (Q2NNR5 whole entry): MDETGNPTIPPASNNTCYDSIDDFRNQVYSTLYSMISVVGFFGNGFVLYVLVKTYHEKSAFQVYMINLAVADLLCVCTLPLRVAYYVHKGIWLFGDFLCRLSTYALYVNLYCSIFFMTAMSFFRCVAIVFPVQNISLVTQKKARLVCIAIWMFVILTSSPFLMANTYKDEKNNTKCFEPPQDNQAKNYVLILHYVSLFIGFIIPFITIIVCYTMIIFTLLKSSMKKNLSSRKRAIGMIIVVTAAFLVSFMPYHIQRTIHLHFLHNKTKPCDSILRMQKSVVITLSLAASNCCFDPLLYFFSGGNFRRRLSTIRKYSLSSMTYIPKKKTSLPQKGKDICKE

Cavia porcellus [2] = assay: Antagonistic effect on LTD4 induced change in lung compliance (CDYN) in anesthetized guinea pigs, at dose 5 ug/kg, administered intravenously; type: functional; conditions: iv
Cavia porcellus [3] = assay: Antagonistic effect on LTD4 induced change in air way resistance (RL) in anesthetized guinea pigs, at dose 5 ug/kg, administered intravenously; type: functional; conditions: iv
[4] = target: T2, Cysteinyl leukotriene receptor 1 (Cavia porcellus) (UniProt Q2NNR5)
T2 sequence (whole entry): T1 sequence (Q2NNR5 whole entry)

Cavia porcellus [5] = assay: Antagonistic effect on LTD4 induced changes in dynamic lung compliance (CDYN) in anesthetized guinea pigs, at dose 5 mg/kg when administered intravenously; type: functional; conditions: route intravenous
Cavia porcellus [6] = assay: Antagonistic effect on LTD4 induced change in airway resistance (RL) in anesthetized guinea pigs, at dose 5 mg/kg when administered intravenously; type: functional; conditions: route intravenous
[7] = target: T2, Cysteinyl leukotriene receptor 1 (Cavia porcellus); remark: listed apart in the source
[8] = target: T2, Cysteinyl leukotriene receptor 1 (Cavia porcellus); assay: Dissociation constant towards Cysteinyl leukotriene D4 receptor of guinea pig
Cavia porcellus [9] = assay: Antagonistic effect on LTD4 induced change in lung compliance (CDYN) in anesthetized guinea pig, at dose 5 ug/kg, administered intravenously; type: functional; conditions: iv

Ki [1] [nM] | -Log K B [4] | -Log K B [7] | -Log K B [8] | SMILES | inhibition in vivo at 0.005 mg/kg (Cavia porcellus [2]) [%] | inhibition in vivo at 0.005 mg/kg (Cavia porcellus [3]) [%] | inhibition in vivo at 5 mg/kg (Cavia porcellus [5]) [%] | inhibition in vivo at 5 mg/kg (Cavia porcellus [6]) [%] | inhibition in vivo at 0.005 mg/kg (Cavia porcellus [9]) [%]
245 | 6.7 | – | – | O=C(O)CCSC(SCCC(=O)O)c1ccccc1CCCCCCCCc1ccccc1 | 95 | 100 | – | – | –
– | – | 6.8 | – | CCCc1c(OCC(O)COc2ccc3c(=O)cc(C(=O)O)oc3c2CCC)ccc(C(C)=O)c1O (stereo unspecified) [FPL-55712 SODIUM SALT] | – | – | 97 | 97 | –
445 | – | – | 6 | CCCCCCCCCCCCc1ccccc1C(SCCC(=O)O)SCCC(=O)O | – | 97 | – | – | 83
